Measured values reported in patent US9969694B2, “N-(arylalkyl)-N′-pyrazolyl-urea, thiourea, guanidine and cyanoguanidine compounds as TrkA kinase inhibitors” (Array BioPharma Inc., priority 2012, dated 2018).
Blank lines part the entries; values can stand above or below the compound they belong to.

Legend:
Assay in all cases: Off-Target Kinase Profiling
Type in all cases: biochemical
Conditions in all cases: 10 μM; ATP near Km
BrSK1 = biological target: T1, BrSK1 (Homo sapiens, UniProt Q8TDC3)
T1 construct: purchased Millipore (KinaseProfiler service)
Experimental: (§1) Representative compounds of the invention (Examples 33 and 10) were tested for off-target kinase activity at a concentration of 10 μM by Millipore, Inc. in their KinaseProfiler™ service against all the kinases available in their full kinase panel. Compounds were run in duplicate at a concentration of ATP near the Km for each individual kinase according to Millipore's specifications. The results are shown in Table B. Data are reported as percent of control (POC) and are the average of the two replicates.

CDK2/cyclinE = biological target: T2, CDK2/cyclinE (Homo sapiens, UniProt P24941)
T2 construct: purchased Millipore, Inc. (KinaseProfiler service)
Experimental: as §1

CDK7/cyclinH/MAT1 = biological target: T3, CDK7/cyclinH/MAT1 (Homo sapiens, UniProt P50613)
T3 construct: purchased Millipore, Inc. (KinaseProfiler service)
Experimental: as §1

CHK1 = biological target: T4, CHK1 (Homo sapiens, UniProt O14757)
T4 construct: purchased Millipore, Inc. (KinaseProfiler service)
Experimental: as §1

CHK2 = biological target: T5, CHK2 (Homo sapiens, UniProt O96017)
T5 construct: purchased Millipore, Inc. (KinaseProfiler service)
Experimental: as §1

CK1delta = biological target: T6, CK1delta (Homo sapiens, UniProt P48730)
T6 construct: purchased Millipore, Inc. (KinaseProfiler service)
Experimental: as §1

CK1gamma2 = biological target: T7, CK1gamma2 (Homo sapiens, UniProt P78368)
T7 construct: purchased Millipore, Inc. (KinaseProfiler service)
Experimental: as §1

EphA1 = biological target: T8, EphA1 (Homo sapiens, UniProt P21709)
T8 construct: purchased Millipore, Inc. (KinaseProfiler service)
Experimental: as §1

EphB2 = biological target: T9, EphB2 (Homo sapiens, UniProt P29323)
T9 construct: purchased Millipore, Inc. (KinaseProfiler service)
Experimental: as §1

ErbB4 = biological target: T10, ErbB4 (Homo sapiens, UniProt Q15303)
T10 construct: purchased Millipore, Inc. (KinaseProfiler service)
Experimental: as §1

FAK2 = biological target: T11, FAK2 (Homo sapiens, UniProt Q14289)
T11 construct: purchased Millipore, Inc. (KinaseProfiler service)
Experimental: as §1

FGFR2 = biological target: T12, FGFR2 (Homo sapiens, UniProt P21802)
T12 construct: purchased Millipore, Inc. (KinaseProfiler service)
Experimental: as §1

Fyn = biological target: T13, Fyn (Homo sapiens, UniProt P06241)
T13 construct: purchased Millipore, Inc. (KinaseProfiler service)
Experimental: as §1

IR Activated = biological target: T14, IR Activated (Homo sapiens, UniProt P06213)
T14 construct: purchased Millipore, Inc. (KinaseProfiler service)
Experimental: as §1

IRR = biological target: T15, IRR (Homo sapiens, UniProt P14616)
T15 construct: purchased Millipore, Inc. (KinaseProfiler service)
Experimental: as §1

KIT = biological target: T16, KIT (Homo sapiens, UniProt P10721)
T16 construct: purchased Millipore, Inc. (KinaseProfiler service)
Experimental: as §1

MKK4_m = biological target: T17, MKK4_m (Mus musculus, UniProt P47809)
T17 construct: purchased Millipore, Inc. (KinaseProfiler service)
Experimental: as §1

MKK6 = biological target: T18, MKK6 (Homo sapiens, UniProt P52564)
T18 construct: purchased Millipore, Inc. (KinaseProfiler service)
Experimental: as §1

MRCKbeta = biological target: T19, MRCKbeta (Homo sapiens, UniProt Q9Y5S2)
T19 construct: purchased Millipore, Inc. (KinaseProfiler service)
Experimental: as §1

MST2 = biological target: T20, MST2 (Homo sapiens, UniProt Q13188)
T20 construct: purchased Millipore, Inc. (KinaseProfiler service)
Experimental: as §1

MuSK = biological target: T21, MuSK (Homo sapiens, UniProt O15146)
T21 construct: purchased Millipore, Inc. (KinaseProfiler service)
Experimental: as §1

NEK11 = biological target: T22, NEK11 (Homo sapiens, UniProt Q8NG66)
T22 construct: purchased Millipore, Inc. (KinaseProfiler service)
Experimental: as §1

NEK2 = biological target: T23, NEK2 (Homo sapiens, UniProt P51955)
T23 construct: purchased Millipore, Inc. (KinaseProfiler service)
Experimental: as §1

NEK3 = biological target: T24, NEK3 (Homo sapiens, UniProt P51956)
T24 construct: purchased Millipore, Inc. (KinaseProfiler service)
Experimental: as §1

NEK6 = biological target: T25, NEK6 (Homo sapiens, UniProt Q9HC98)
T25 construct: purchased Millipore, Inc. (KinaseProfiler service)
Experimental: as §1

PDGFRalpha = biological target: T26, PDGFRalpha (Homo sapiens, UniProt P16234)
T26 construct: purchased Millipore, Inc. (KinaseProfiler service)
Experimental: as §1

PDK1 = biological target: T27, PDK1 (Homo sapiens, UniProt O15530)
T27 construct: purchased Millipore, Inc. (KinaseProfiler service)
Experimental: as §1

PKCdelta = biological target: T28, PKCdelta (Homo sapiens, UniProt Q05655)
T28 construct: purchased Millipore, Inc. (KinaseProfiler service)
Experimental: as §1

PKD1 = biological target: T29, PKD1 (Homo sapiens, UniProt Q15139)
T29 construct: purchased Millipore, Inc. (KinaseProfiler service)
Experimental: as §1

PTK6 = biological target: T30, PTK6 (Homo sapiens, UniProt Q13882)
T30 construct: purchased Millipore, Inc. (KinaseProfiler service)
Experimental: as §1

Pim-2 = biological target: T31, Pim-2 (Homo sapiens, UniProt Q9P1W9)
T31 construct: purchased Millipore, Inc. (KinaseProfiler service)
Experimental: as §1

Plk1 = biological target: T32, Plk1 (Homo sapiens, UniProt P53350)
T32 construct: purchased Millipore, Inc. (KinaseProfiler service)
Experimental: as §1

PrKX = biological target: T33, PrKX (Homo sapiens, UniProt P51817)
T33 construct: purchased Millipore, Inc. (KinaseProfiler service)
Experimental: as §1

Ron = biological target: T34, Ron (Homo sapiens, UniProt Q04912)
T34 construct: purchased Millipore, Inc. (KinaseProfiler service)
Experimental: as §1

SGK3 = biological target: T35, SGK3 (Homo sapiens, UniProt Q96BR1)
T35 construct: purchased Millipore, Inc. (KinaseProfiler service)
Experimental: as §1

SRPK2 = biological target: T36, SRPK2 (Homo sapiens, UniProt P78362)
T36 construct: purchased Millipore, Inc. (KinaseProfiler service)
Experimental: as §1

TAK1 = biological target: T37, TAK1 (Homo sapiens, UniProt O43318)
T37 construct: purchased Millipore, Inc. (KinaseProfiler service)
Experimental: as §1

TSSK2 = biological target: T38, TSSK2 (Homo sapiens, UniProt Q96PF2)
T38 construct: purchased Millipore, Inc. (KinaseProfiler service)
Experimental: as §1

TrkB = biological target: T39, TrkB (Homo sapiens, UniProt Q16620)
T39 construct: purchased Millipore, Inc. (KinaseProfiler service)
Experimental: as §1

Txk = biological target: T40, Txk (Homo sapiens, UniProt P42681)
T40 construct: purchased Millipore, Inc. (KinaseProfiler service)
Experimental: as §1

eEF-2K = biological target: T41, eEF-2K (Homo sapiens, UniProt O00418)
T41 construct: purchased Millipore, Inc. (KinaseProfiler service)
Experimental: as §1

T3 sequence (P50613 whole entry): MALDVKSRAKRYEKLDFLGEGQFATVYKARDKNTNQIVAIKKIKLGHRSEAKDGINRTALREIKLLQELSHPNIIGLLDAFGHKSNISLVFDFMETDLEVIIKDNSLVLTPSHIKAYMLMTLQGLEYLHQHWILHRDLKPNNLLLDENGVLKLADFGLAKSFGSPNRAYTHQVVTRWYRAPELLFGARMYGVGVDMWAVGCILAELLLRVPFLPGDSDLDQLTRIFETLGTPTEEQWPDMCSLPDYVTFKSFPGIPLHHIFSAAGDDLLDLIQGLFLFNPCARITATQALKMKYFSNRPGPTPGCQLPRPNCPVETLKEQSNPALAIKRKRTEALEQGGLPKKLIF
T3 sequence (P51946 whole entry partner): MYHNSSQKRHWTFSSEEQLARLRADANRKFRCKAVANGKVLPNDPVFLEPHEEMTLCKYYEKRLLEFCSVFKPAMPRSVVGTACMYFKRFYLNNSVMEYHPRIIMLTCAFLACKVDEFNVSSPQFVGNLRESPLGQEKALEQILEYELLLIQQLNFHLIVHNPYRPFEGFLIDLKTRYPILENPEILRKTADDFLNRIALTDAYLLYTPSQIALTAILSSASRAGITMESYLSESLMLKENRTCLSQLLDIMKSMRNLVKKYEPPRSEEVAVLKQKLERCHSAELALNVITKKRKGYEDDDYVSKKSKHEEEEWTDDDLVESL
T3 sequence (P51948 whole entry partner): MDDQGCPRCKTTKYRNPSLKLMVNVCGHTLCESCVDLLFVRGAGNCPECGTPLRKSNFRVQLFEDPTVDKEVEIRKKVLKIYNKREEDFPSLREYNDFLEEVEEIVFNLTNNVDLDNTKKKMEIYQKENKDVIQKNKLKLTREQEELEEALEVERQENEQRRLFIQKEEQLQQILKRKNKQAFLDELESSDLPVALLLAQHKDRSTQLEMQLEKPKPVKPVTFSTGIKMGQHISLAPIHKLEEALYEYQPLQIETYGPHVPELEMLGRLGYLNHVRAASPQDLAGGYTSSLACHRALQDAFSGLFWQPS
T25 sequence (Q9HC98 whole entry): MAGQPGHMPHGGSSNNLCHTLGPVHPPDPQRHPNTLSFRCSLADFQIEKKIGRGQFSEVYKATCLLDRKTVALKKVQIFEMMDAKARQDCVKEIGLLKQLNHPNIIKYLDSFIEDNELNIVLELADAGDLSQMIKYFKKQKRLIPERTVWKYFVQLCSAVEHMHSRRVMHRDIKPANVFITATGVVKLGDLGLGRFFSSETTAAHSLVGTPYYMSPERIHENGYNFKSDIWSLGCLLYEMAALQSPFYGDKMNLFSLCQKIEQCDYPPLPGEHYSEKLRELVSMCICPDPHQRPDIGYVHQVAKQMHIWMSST
T23 sequence (P51955 whole entry): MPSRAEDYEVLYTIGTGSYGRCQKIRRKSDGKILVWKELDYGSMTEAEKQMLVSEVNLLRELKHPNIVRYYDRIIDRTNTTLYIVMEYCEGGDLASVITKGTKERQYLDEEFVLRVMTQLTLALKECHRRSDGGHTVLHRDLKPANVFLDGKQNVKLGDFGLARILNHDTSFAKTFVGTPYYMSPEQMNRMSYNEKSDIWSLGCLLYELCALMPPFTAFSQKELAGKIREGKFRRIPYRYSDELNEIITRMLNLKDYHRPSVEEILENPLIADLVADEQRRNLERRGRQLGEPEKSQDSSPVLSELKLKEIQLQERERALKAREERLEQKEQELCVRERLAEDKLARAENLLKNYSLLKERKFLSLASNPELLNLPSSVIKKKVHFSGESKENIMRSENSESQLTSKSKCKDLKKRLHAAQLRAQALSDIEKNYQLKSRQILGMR
T33 sequence (P51817 whole entry): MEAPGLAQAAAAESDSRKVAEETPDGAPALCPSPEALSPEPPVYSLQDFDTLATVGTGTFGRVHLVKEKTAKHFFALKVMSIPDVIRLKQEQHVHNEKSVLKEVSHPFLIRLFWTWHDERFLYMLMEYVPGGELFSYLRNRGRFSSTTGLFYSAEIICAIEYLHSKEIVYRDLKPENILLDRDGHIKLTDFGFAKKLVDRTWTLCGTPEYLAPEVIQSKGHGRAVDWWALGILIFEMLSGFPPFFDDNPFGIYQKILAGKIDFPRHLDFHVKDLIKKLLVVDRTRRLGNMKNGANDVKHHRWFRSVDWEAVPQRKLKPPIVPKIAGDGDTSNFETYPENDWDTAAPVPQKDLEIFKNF
T30 sequence (Q13882 whole entry): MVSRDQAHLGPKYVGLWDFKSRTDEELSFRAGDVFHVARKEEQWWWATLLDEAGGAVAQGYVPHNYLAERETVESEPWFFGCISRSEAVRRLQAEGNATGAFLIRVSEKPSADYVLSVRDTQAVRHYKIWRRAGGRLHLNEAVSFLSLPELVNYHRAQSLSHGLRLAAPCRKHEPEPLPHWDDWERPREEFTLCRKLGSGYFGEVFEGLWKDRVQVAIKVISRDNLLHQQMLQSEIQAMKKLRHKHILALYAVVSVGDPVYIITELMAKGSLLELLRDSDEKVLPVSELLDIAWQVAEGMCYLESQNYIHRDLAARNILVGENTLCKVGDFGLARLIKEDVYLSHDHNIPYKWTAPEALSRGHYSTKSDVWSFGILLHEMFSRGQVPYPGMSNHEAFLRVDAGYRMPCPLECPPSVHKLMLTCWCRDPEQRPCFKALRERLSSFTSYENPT
T6 sequence (P48730 whole entry): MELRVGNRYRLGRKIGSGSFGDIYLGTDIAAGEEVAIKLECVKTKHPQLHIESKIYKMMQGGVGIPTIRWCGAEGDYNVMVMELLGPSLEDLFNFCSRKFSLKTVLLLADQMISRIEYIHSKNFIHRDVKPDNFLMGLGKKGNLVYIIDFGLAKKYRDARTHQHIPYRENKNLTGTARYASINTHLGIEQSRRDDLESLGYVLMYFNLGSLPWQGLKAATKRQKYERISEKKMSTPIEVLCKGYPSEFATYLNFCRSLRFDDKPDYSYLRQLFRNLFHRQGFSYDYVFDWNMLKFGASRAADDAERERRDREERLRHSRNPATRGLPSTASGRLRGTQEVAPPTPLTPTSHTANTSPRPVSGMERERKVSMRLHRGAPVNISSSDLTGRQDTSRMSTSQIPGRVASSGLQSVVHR
T15 sequence (P14616 27-1297): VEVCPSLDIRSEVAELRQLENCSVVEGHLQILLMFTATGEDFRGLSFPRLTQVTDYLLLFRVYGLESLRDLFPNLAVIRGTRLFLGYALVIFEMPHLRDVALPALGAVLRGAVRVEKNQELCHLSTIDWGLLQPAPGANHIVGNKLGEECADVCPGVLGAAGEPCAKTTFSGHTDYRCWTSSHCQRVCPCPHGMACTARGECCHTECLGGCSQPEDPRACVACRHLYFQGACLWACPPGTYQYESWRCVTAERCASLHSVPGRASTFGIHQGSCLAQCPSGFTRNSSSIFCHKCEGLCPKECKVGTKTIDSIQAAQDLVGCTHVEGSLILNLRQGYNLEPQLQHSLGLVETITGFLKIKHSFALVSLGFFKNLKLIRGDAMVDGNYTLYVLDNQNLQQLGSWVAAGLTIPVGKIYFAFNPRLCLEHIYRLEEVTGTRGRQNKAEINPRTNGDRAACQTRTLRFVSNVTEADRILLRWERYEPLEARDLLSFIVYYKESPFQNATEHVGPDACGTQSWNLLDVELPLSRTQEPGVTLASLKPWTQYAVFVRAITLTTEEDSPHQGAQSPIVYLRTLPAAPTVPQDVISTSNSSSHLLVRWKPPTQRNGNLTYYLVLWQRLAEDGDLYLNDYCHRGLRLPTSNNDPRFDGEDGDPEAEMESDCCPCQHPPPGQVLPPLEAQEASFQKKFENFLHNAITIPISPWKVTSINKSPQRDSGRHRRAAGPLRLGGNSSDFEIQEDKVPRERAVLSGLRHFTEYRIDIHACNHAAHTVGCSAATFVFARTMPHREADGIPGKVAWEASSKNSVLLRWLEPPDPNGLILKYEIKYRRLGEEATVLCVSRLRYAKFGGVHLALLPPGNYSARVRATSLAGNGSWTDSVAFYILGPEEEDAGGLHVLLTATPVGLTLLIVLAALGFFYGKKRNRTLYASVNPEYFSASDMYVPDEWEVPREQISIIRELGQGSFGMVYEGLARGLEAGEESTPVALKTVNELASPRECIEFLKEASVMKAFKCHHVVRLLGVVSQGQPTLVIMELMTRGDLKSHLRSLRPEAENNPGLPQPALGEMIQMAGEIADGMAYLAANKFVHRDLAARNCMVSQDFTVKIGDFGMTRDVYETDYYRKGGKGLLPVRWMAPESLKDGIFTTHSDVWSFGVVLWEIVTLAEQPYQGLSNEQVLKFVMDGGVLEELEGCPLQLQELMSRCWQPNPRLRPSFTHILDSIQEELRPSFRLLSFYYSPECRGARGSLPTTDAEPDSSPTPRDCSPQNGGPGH
T28 sequence (Q05655 whole entry): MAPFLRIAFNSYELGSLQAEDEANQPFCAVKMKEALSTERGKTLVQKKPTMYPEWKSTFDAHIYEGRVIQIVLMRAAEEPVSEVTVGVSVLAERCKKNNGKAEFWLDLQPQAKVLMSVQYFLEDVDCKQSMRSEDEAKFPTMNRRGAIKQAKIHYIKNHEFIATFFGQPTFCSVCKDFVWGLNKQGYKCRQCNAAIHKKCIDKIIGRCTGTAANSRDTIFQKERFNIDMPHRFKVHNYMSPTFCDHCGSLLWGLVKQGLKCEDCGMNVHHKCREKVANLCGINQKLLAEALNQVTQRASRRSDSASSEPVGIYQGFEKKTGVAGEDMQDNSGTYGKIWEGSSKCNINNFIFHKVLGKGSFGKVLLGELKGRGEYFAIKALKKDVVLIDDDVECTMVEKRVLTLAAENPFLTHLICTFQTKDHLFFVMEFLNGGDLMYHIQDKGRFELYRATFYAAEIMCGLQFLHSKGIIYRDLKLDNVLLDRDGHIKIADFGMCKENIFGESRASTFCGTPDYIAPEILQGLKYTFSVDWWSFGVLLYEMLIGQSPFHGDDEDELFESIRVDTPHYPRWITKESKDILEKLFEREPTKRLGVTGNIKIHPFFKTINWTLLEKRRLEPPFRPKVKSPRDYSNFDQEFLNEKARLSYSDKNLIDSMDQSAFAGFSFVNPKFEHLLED

- Avg POC BrSK1 (BrSK1): 119 POC
- Avg POC CDK2/cyclinE (CDK2/cyclinE): 115.5 POC
- Avg POC CDK7/cyclinH/MAT1 (CDK7/cyclinH/MAT1): 113.5 POC
- Avg POC CHK1 (CHK1): 97 POC
- Avg POC CHK2 (CHK2): 138 POC
- Avg POC CK1delta (CK1delta): 127.5 POC
- Avg POC CK1gamma2 (CK1gamma2): 113.5 POC
- Avg POC EphA1 (EphA1): 90 POC
- Avg POC EphB2 (EphB2): 112.5 POC
- Avg POC ErbB4 (ErbB4): 130.5 POC
- Avg POC FAK2 (FAK2): 108 POC
- Avg POC FGFR2 (FGFR2): 109.5 POC
- Avg POC Fyn (Fyn): 113 POC
- Avg POC IR Activated (IR Activated): 103.5 POC
- Avg POC IRR (IRR): 96.5 POC
- Avg POC KIT (KIT): 94 POC
- Avg POC MKK4_m (MKK4_m): 137 POC
- Avg POC MKK6 (MKK6): 143 POC
- Avg POC MRCKbeta (MRCKbeta): 116.5 POC
- Avg POC MST2 (MST2): 98 POC
- Avg POC MuSK (MuSK): 94.5 POC
- Avg POC NEK11 (NEK11): 108 POC
- Avg POC NEK2 (NEK2): 96 POC
- Avg POC NEK3 (NEK3): 115.5 POC
- Avg POC NEK6 (NEK6): 115.5 POC
- Avg POC PDGFRalpha (PDGFRalpha): 126.5 POC
- Avg POC PDK1 (PDK1): 126.5 POC
- Avg POC PKCdelta (PKCdelta): 93 POC
- Avg POC PKD1 (PKD1): 94 POC
- Avg POC PTK6 (PTK6): 118.5 POC
- Avg POC Pim-2 (Pim-2): 146 POC
- Avg POC Plk1 (Plk1): 93 POC
- Avg POC PrKX (PrKX): 146.5 POC
- Avg POC Ron (Ron): 95.5 POC
- Avg POC SGK3 (SGK3): 150 POC
- Avg POC SRPK2 (SRPK2): 112 POC
- Avg POC TAK1 (TAK1): 88.5 POC
- Avg POC TSSK2 (TSSK2): 131 POC
- Avg POC TrkB (TrkB): 0 POC
- Avg POC Txk (Txk): 156.5 POC
- Avg POC eEF-2K (eEF-2K): 169.5 POC
SMILES: COCc1ccc(C(F)(F)F)c(CNC(=O)Nc2c(C)c(-c3cnn(C)c3)nn2-c2ccccc2)c1 [Example 33, 1-(1′,4-dimethyl-1-phenyl-1H,1′H-[3,4′-bipyrazol]-5-yl)-3-(5-(methoxymethyl)-2-(trifluoromethyl)benzyl)urea]

- Avg POC BrSK1 (BrSK1): 86.5 POC
- Avg POC CDK2/cyclinE (CDK2/cyclinE): 93 POC
- Avg POC CDK7/cyclinH/MAT1 (CDK7/cyclinH/MAT1): 96.5 POC
- Avg POC CHK1 (CHK1): 102.5 POC
- Avg POC CHK2 (CHK2): 93 POC
- Avg POC CK1delta (CK1delta): 85.5 POC
- Avg POC CK1gamma2 (CK1gamma2): 69.5 POC
- Avg POC EphA1 (EphA1): 98 POC
- Avg POC EphB2 (EphB2): 103 POC
- Avg POC ErbB4 (ErbB4): 108.5 POC
- Avg POC FAK2 (FAK2): 96 POC
- Avg POC FGFR2 (FGFR2): 103.5 POC
- Avg POC Fyn (Fyn): 103 POC
- Avg POC IR Activated (IR Activated): 99 POC
- Avg POC IRR (IRR): 96 POC
- Avg POC KIT (KIT): 102 POC
- Avg POC MKK4_m (MKK4_m): 125.5 POC
- Avg POC MKK6 (MKK6): 131.5 POC
- Avg POC MRCKbeta (MRCKbeta): 108.5 POC
- Avg POC MST2 (MST2): 97.5 POC
- Avg POC MuSK (MuSK): 95 POC
- Avg POC NEK11 (NEK11): 102 POC
- Avg POC NEK2 (NEK2): 98 POC
- Avg POC NEK3 (NEK3): 97.5 POC
- Avg POC NEK6 (NEK6): 92.5 POC
- Avg POC PDGFRalpha (PDGFRalpha): 102 POC
- Avg POC PDK1 (PDK1): 120.5 POC
- Avg POC PKCdelta (PKCdelta): 91.5 POC
- Avg POC PKD1 (PKD1): 94.5 POC
- Avg POC PTK6 (PTK6): 106.5 POC
- Avg POC Pim-2 (Pim-2): 118 POC
- Avg POC Plk1 (Plk1): 84 POC
- Avg POC PrKX (PrKX): 73.5 POC
- Avg POC Ron (Ron): 100.5 POC
- Avg POC SGK3 (SGK3): 92.5 POC
- Avg POC SRPK2 (SRPK2): 114 POC
- Avg POC TAK1 (TAK1): 86 POC
- Avg POC TSSK2 (TSSK2): 90 POC
- Avg POC TrkB (TrkB): 0.5 POC
- Avg POC Txk (Txk): 104.5 POC
- Avg POC eEF-2K (eEF-2K): 109.5 POC
SMILES: COCc1ccc(C2CCC2)c(CNC(=O)Nc2c(C)c(-c3cnc(C)nc3)nn2-c2ccccc2)c1 [Example 10, 1-(2-cyclobutyl-5-(methoxymethyl)benzyl)-3-(4-methyl-3-(2-methylpyrimidin-5-yl)-1-phenyl-1H-pyrazol-5-yl)urea]
